From patent US6548496B2, “Substituted 3-cyano-[1.7], [1.5], and [1.8] naphthyridine inhibitors of tyrosine kinases” (American Cyanamid Company, priority 1999, dated 2003)

Tests used:
MDA435 = test: Inhibition of cancer cell growth by cell number, MDA435; type: cell-based, Human; conditions: 48 hours exposure, Sulforhodamine B
Procedure: (§1) Human tumor cell lines were plated in 96-well plates (250 μl/well, 1-6×10^4 cells/ml) in RPMI 1640 medium, containing 5% FBS (Fetal Bovine Serum). […] After 48 hours exposure to test compounds, cells were fixed with trichloroacetic acid, and stained with Sulforhodamine B. After washing with trichloroacetic acid, bound dye was solubilized in 10 mM Tris base and optical density was determined using a plate reader. Under conditions of the assay the optical density is proportional to the number of cells in the well. IC50s (concentrations causing 50% inhibition of cell growth) were determined from the growth inhibition plots. The test procedure is described in details by Philip Skehan et. at J. Natl. Canc. Inst., 82, 1107-1112 (1990). […] Information about some of the cell lines used in these test procedures is available from the American […]: Cell Lines and Hybridomas, 1994 Reference Guide, 8th Edition. The Her2Neu cell line is a 3T3 line that has bbeen transfected with Her2 receptor kinase.

A431 = test: Inhibition of cancer cell growth by cell number, A431; type: cell-based, Human; conditions: 48 hours exposure, Sulforhodamine B
Procedure: as §1

SKBR3 = test: Inhibition of cancer cell growth by cell number, SKBR3; type: cell-based, Human; conditions: 48 hours exposure, Sulforhodamine B
Procedure: as §1

A2780S = test: Inhibition of cancer cell growth by cell number, A2780S; type: cell-based, Human; conditions: 48 hours exposure, Sulforhodamine B
Procedure: as §1

A2780DDP = test: Inhibition of cancer cell growth by cell number, A2780DDP; type: cell-based, Human; conditions: 48 hours exposure, Sulforhodamine B
Procedure: as §1

SW620 = test: Inhibition of cancer cell growth by cell number, SW620; type: cell-based, Human; conditions: 48 hours exposure, Sulforhodamine B
Procedure: as §1

LOX = test: Inhibition of cancer cell growth by cell number, LOX; type: cell-based, Human; conditions: 48 hours exposure, Sulforhodamine B
Procedure: as §1

[1] = biological target: T1, recombinant human MEK 1 (MAPKK) / human ERK2 (MAPK) (Homo sapiens, UniProt P28482+Q02750); test: Mitogen Activated Protein Kinase (MAPK) coupled Mek-Erk assay; type: biochemical; conditions: coupled MEK 1/ERK2 assay, 33P ATP; read-out: IC50, inhibition of Mitogen Activated Protein Kinase (Mek-Erk)
T1 construct: The recombinant enzymes used were prepared as GST fusion proteins of human ERK 2 and human MEK 1
Procedure: To evaluate inhibitors of the MAP (mitogen activated protein) kinase a two component coupled standard pharmacological test procedure, which measures phosphorylation of a serine/threonine residue in an appropriate sequence in the substrate in the presence and absence of a putative inhibitor, was used. Recombinant human MEK 1 (MAPKK) was first used to activate recombinant human ERK2 (MAPK) and the activated MAPK (ERK) was incubated with substrate (MEP peptide or MYC peptide) in the presence of ATP, Mg^+2 and radiolabeled ^33P ATP. The phosphorylated peptide was captured on a P 81 phosphocellulose filter (paper filter or embedded in microtiter plate) washed and counted by scintillation methods. […]
The reaction was run as follows in 50 mM Tris kinase buffer, pH 7.4 in a reaction volume of 50 ul. […] The filters or MTP were briefly air dried before addition of scintillant and samples were counted in the appropriate scintillation counter set up for reading ^33P isotope. […]
The raw data was captured as cpm Sample replicates were averaged and corrected for background count. Mean cpm data was tabulated by group and % inhibition by a test compound was calculated as (corrected cpm control-corrected. cpm sample/control)×100=% inhibition. […]

T1 sequence (P28482 2-360): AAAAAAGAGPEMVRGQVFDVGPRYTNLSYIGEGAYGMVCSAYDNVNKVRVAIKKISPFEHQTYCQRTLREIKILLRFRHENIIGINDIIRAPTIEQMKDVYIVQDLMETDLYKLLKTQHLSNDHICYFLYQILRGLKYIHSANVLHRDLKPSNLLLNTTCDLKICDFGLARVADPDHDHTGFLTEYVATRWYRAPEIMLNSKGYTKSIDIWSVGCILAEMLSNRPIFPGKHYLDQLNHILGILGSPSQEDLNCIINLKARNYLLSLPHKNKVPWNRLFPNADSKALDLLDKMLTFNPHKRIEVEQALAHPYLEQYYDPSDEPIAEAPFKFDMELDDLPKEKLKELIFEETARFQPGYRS
T1 sequence (Q02750 whole entry, the tested form may be a part): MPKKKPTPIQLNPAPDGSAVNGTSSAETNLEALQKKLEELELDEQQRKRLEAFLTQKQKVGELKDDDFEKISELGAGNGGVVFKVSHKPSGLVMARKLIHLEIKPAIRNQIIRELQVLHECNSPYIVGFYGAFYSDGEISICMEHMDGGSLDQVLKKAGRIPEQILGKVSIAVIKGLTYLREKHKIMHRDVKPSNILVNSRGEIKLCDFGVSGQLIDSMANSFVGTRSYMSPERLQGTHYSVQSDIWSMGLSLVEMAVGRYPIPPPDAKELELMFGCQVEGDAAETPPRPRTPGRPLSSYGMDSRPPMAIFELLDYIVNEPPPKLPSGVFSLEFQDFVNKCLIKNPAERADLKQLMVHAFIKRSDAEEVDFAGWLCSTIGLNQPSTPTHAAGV

Molecule	IC50, inhibition of cell growth, MDA435 (MDA435) [µg/mL]	IC50, inhibition of cell growth, A431 (A431) [µg/mL]	IC50, inhibition of cell growth, SKBR3 (SKBR3) [µg/mL]	IC50, inhibition of cell growth, A2780S (A2780S) [µg/mL]	IC50, inhibition of cell growth, A2780DDP (A2780DDP) [µg/mL]	IC50, inhibition of cell growth, SW620 (SW620) [µg/mL]	IC50, inhibition of cell growth, LOX (LOX) [µg/mL]	IC50 [1] [µM]
1-[4-(3-Bromo-phenylamino)-3-cyano-[1,7]naphthyridin-6-yl]-4-diethylamino-pyridinium Fluoride [Example 65]	47	59	41	31	52	42	56	
N#Cc1cnc2ncc([N+](=O)[O-])cc2c1Nc1cccc(Br)c1 [Example 21, 4-(3-Bromo-phenylamino)-6-nitro-[1,8]naphthyridine-3-carbonitrile]								10
